Measurements: patent publication US4791139A, “Diphenyl ether derivatives and their use as insecticides” (Imperial Chemical Industries PLC, priority 1986, dated 1988)

Tests used:
Assay type in all cases: in vivo
[1] = test system: Meloidogyne incognita (Tomato root knot eelworm - larvae); assay: Residual test, Tomato root knot eelworm - larvae (MI), Semi in-vitro; conditions: 168 h, rate column 500 ppm, application rate is half that recorded, 7 days, read-out: MI grading of mortality
carp = assay: Mortality to carp; conditions: after 48 hours at 10 parts per million
From the text: The compounds according to formula I and compositions comprising them have shown themselves to be particularly useful in controlling pests of maize and rice such as Chilo (stem borers), Nilaparvata and Nephotettix (plant hoppers) as well as lepidopteran pests of cotton, for example Heliothis spp. This activity is combined with a low level of hazard to aquatic organisms, eg. fish, which renders the compounds particularly suitable for use in aquatic environments, such as for the control of insect pests of paddy rice and for the control of larvae of insect vectors of disease, for example mosquitos. Thus, for example, compound 2 in Table I caused no mortality to carp after 48 hours at a concentration of 10 parts per million. […] (spider mites).

[2] = test system: Heliothis virescens (tobacco budworm - larvae); assay: Residual test, tobacco budworm - larvae (HV), Cotton leaf; conditions: 72 h, read-out: HV grading of mortality
Outline: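 Products applied as acetone solutions diluted in water with 0.1% wetting agent, at 100–500 ppm; pests on host plant or food, with pests and/or medium treated. Mortality or knockdown scored 1–7 days after treatment and graded A (80–100%), B (50–79%) or C (<50%).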

[3] = test system: Chilo partellus (Maize stemborer - larvae); assay: Residual test, Maize stemborer - larvae (CP), Oilseed rape; conditions: 72 h, 500 ppm, 3 days, read-out: CP grading of mortality
Experimental: (§1) The activity of the Product was determined using a variety of insect pests. The Product was used in the form of liquid preparations containing from 100 to 500 parts per million (ppm) by weight of the Product. The preparations were made by dissolving the Product in acetone and diluting the solutions with water containing 0.1% by weight of a wetting agent sold under the trade name "SYNPERONIC" NX until the liquid preparations contained the required concentration of the Product. "SYNPERONIC" is a Registered Trade Mark.
(§2) The test procedure adopted with regard to each pest was basically the same and comprised supporting a number of the pests on a medium which was usually a host plant or a foodstuff on which the pests feed, and treating either or both the pests and the medium with the preparations. The mortality of the pests was then assessed at periods usually varying from one to seven days after the treatment.
(§3) The results of the tests are given in Table III for each of the Products, at the rate in parts per million given in the second column as a grading of mortality designated as A, B or C wherein A indicates 80-100% mortality or knockdown (70-100% for Meloidogyne incognita), B indicates 50-79% mortality knockdown or knockdown (50-69% for Meloidogyne incognita) and C indicates less than 50% mortality or knockdown.
In Table III the pest organism used is designated by a letter code and the pests species, the support medium or food, and the type and duration of test is given in Table II.
(Maize stemborer - larvae)

[4] = test system: Musca domestica (houseflies - adults); assay: Contact test, houseflies - adults (MD), Cotton wool/sugar; conditions: 24 h, 1 day, read-out: MD grading of mortality
Outline: (§4)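 Each pest was kept on its food plant or foodstuff and exposed, directly or via the medium, to 100 to 500 ppm Product in water containing 0.1% by weight wetting agent. Kill was recorded over one to seven days.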

[5] = test system: Blattella germanica (cockroach nymphs); assay: Residual test, cockroach nymphs (BG), Plastic pot; conditions: 72 h, 3 days, read-out: BG grading of mortality
Outline: as §4

[6] = test system: Diabrotica balteata (rootworm larvae); assay: Residual test, rootworm larvae (DB), Filter paper/maize seed; conditions: 72 h, 3 days, read-out: DB grading of mortality
Outline: as §4

[7] = test system: Musca domestica (houseflies - adults); assay: Knockdown test, houseflies - adults (MD/KD), Cotton wool/sugar; conditions: 4 hours, read-out: MD/KD grading of knockdown
Outline: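 Product was dissolved in acetone and diluted with water containing 0.1% wetting agent to 100–500 ppm. The flies and/or their food medium were treated with the preparation. Mortality was scored 1–7 days after treatment, with an additional knockdown assessment for houseflies.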

[8] = test system: Nilaparvata lugens (brown plant hopper - nymphs); assay: Contact test, brown plant hopper - nymphs (NL), Rice plant; conditions: 72 h, 500 ppm, 3 days, read-out: NL grading of mortality
Outline: as §4

Myzus persicae (aphids) = assay: Contact test, aphids (MP), Chinese Cabbage leaf; conditions: 72 h, 3 days, read-out: MP grading of mortality
Outline: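 Aphids on a host plant and/or the plant itself were treated with 100–500 ppm of product, applied from acetone diluted in water containing 0.1% SYNPERONIC NX wetting agent. Mortality was scored usually one to seven days after treatment.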

[9] = test system: Spodoptera exigua (lesser army worm - larvae); assay: Residual test, lesser army worm - larvae (SP), Cotton leaf; conditions: 72 h, 250 ppm, 3 days, read-out: SP grading of mortality
Outline: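 Compound dissolved in acetone and diluted in water with 0.1% Synperonic NX wetting agent to 100–500 ppm. Pests on host plant or food, with pests and/or medium treated. Mortality assessed 1–7 days after treatment and graded A (80–100%), B (50–79%) or C (<50%).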

[10] = test system: Tetranychus urticae (spider mites - adult); assay: Contact test, spider mites - adult (TUa), French bean leaf; conditions: 72 h, 250 ppm, 3 days, read-out: TUA grading of mortality
Outline: as §4

Nephotettix cincticeps = assay: Contact test, leaf hopper in place of Nilaparvata lugens (NL**), Rice plant; conditions: 72 h, 250 ppm, 3 days, read-out: NL** grading of mortality (Nephotettix cincticeps)
Experimental: as §1, §2
as §3, with “knockdown. […]” for “knockdown.”

Compound | mortality at 250 µg/mL [1] [%] | mortality to carp (carp) | mortality at 500 ppm [2] [%] | mortality at 500 ppm [3] [%] | mortality at 500 ppm ([4]; 500 ppm) [%] | mortality at 500 ppm ([5]; 500 ppm) [%] | mortality at 500 ppm ([6]; 500 ppm) [%] | pest or weed control at 500 ppm ([7]; 500 ppm) [%] | mortality at 500 ppm [8] [%] | mortality at 500 ppm (Myzus persicae (aphids); 500 ppm) [%] | mortality at 250 ppm [2] [%] | mortality at 250 ppm ([4]; 250 ppm) [%] | mortality at 250 ppm ([5]; 250 ppm) [%] | mortality at 250 ppm [9] [%] | mortality at 250 ppm [10] [%] | mortality at 250 ppm ([6]; 250 ppm) [%] | pest or weed control at 250 ppm ([7]; 250 ppm) [%] | mortality at 250 ppm (Myzus persicae (aphids); 250 ppm) [%] | mortality at 250 ppm (Nephotettix cincticeps) [%]
CCOc1ccc(C(CCCc2cccc(Oc3ccccc3)c2)C(F)(F)F)cc1 (racemic) [Compound 2, 2-(4-ethoxyphenyl)-5-(3-phenoxyphenyl)-1,1,1-trifluoropentane] | < 50 | no mortality | 80 to 100 | 80 to 100 | 80 to 100 | 80 to 100 | 80 to 100 | 80 to 100 | 80 to 100 | 80 to 100 |  |  |  |  |  |  |  |  | 
FC(F)(F)COc1ccc(C(CCCc2cccc(Oc3ccccc3)c2)C(F)(F)F)cc1 (racemic) [Compound 73, 1,1,1-trifluoro-2-[4-(2,2,2-trifluoroethoxy)phenyl]-5-(3-phenoxyphenyl)pentane] |  |  |  |  |  |  |  |  |  |  | 80 to 100 | 80 to 100 | 80 to 100 | 80 to 100 | 80 to 100 | 80 to 100 | 80 to 100 | 80 to 100 | 80 to 100
